Bridge positions count the residues as written; N and C are the ends. Square brackets hold non-standard residues; d marks the D form. Primed or numbered codes have the meaning given here. Ends that are not written are not given here. * marks the point of attachment. Lys(N3) = [N-]=[N+]=NCCCC[C@H](N)C(=O)O; Ttds = NCCCOCCOCCOCCCNC(=O)CCC(=O)*; hCys = N[C@@H](CCS)C(=O)O; PEG4′ = not defined here
Assays:
[1] = tested on: Human aortic endothelial cells; assay: Human aortic endothelial cells grown 48 h on bare or peptide-coated nitinol disks; F-actin and CD31 fluorescence image analysis; format: cell-based; settings: for CD31/Actin score: Example 2, FIG. 25, compared to bare metal disks or disks coated with PDA alone; for CD31 expression, Integrated Density: HAEC 48 h on coated nitinol disks, anti-CD31 domain 1 antibody, compared to other modified disks and bare controls, FIGS. 2, 4, 5; for ratio between CD31 and F-actin expression: compared to bare metal and disks coated with PDA only, FIG. 6
Description: Nitinol disks are left untouched (bare metal) or coated with a domain 1, domain 2 or domain 1 and 2 CD31 analog peptide. The tested peptide is grafted to the nitinol disk following a polydopamine, DBCO-PEG4-amine and azide CD31 derivative peptide using a sequential dip-coating layering procedure. After this step, all the disks are incubated with Human aortic endothelial cells for 48h. Disks are then rinsed and the cells are fixed in a formalin solution before staining. The staining is fulfilled using phalloidin coupled to AlexaFluor®488 dye (green fluorescence for Actin), DAPI is used for DNA staining and a domain 1 CD31 antibody coupled to APC is used for external Domain 1 staining. The cell adhesion and Actin/CD31 expression was evaluated by image analysis of the surface after staining.
In particular, as per FIG. 2 the bare or coated nitinol disks were placed at the bottom of culture wells. Primary Human Aortic Endothelial Cells (HAEC) were allowed to grow on the disks for a period of 48 h. The disks were thereafter rinsed with phosphate buffered saline, fixed in formalin, and processed for fluorescence microscopy. Disk-adherent cells were immersed in a solution comprising Hoechst 33342 (1 μg/ml, to stain the nuclei), phalloidin coupled to AlexaFluor®488 dye (0.5 μM, to stain F-actin fibers) and a monoclonal antibody directed against CD31 domain 1, coupled to allophycocyanin (to detect the presence and localization of intact CD31 at the cell surface) for 1 hour at 37° C., washed and mounted face down on glass bottom imaging chambers for imaging with an inverted fluorescence microscope.
Surface type is indicated on the Y axis, data are expressed as average±SD (N=6/surface type). Each dot corresponds to a specific surface modification. The F-actin expression relates the cellular stress of the cell in presence of the exogenous material.
In FIG. 4 the surface type is indicated on the Y axis. Each dot corresponds to a specific surface modification. Data are expressed as “Integrated Density” average±SD (N=6/surface type). CD31 expression relates the capacity of endothelial cells to adopt a physiologic phenotype while growing on a given substrate. An important variability is observed in terms of CD31 expression by HAEC according to the surface modification of the nitinol disks.
The effect of different peptides, belonging to the different groups, were tested in batches following the same protocol as in FIG. 6. Different peptides from each group were tested in batches and the effect of individual peptides was repeatedly assessed in separate experiments. Data from all experiments were obtained by computer-assisted analysis of images of the disk side covered with endothelial cells, captured in the blue, green and red channel of an inverted fluorescence microscope. The functional score of the peptides belonging to the different groups was calculated by multiplying the number of cells (as detected by the number of blue, Dapi+ nuclei) for the integrated density of CD31 expression (red signal provided by the binding of a mouse anti-human CD31 monoclonal antibody, clone 9G11, conjugated allophycocyanin) and their product being divided for the integrated density of the F-actin polymerization (Phalloidin coupled to a green fluorochrome).
The same protocol as in Example 1 was followed, using peptides according to the invention (SP547, SP548 SP745, SP1374, SP1072, SP1070, SP1071, SP1379 and SP1383) as defined above and the prior art peptide P8RI of sequence KWPALFVR (SEQ ID NO: 52).
The “CD31/Actin” score, resulting from the integrated density of CD31 immunostaining signal divided by the signal of phalloidin, which binds to the polymerized F-actin of the cytoskeleton, has been used to identify the physiological/non-stressed character of the arterial endothelial cells growing onto the surface of experimental disks placed at the bottom of culture wells. […]

[2] = tested on: New Zealand White rabbits; assay: Coated flow-diverter stents (CFD) implanted in aneurysm-carrying artery and abdominal aorta of the rabbit aneurysm model, with aspirin and clopidogrel; SEM and histopathology; format: in vivo
Excerpt: Flow-diverter stents (CFD) are braided meshes made of nitinol, from Sinomed. They are coated by one of the following coatings: • 1. SP1072 peptide according to the invention, or • 2. Hydrophilic polymer eG NTMA (obtained from the electrografting of N-[Tris(hydroxymethyl)Methyl] Acrylamide).
A total of 8 healthy New Zealand White rabbits (including 2 spare animals), male and female, weighing about 3 kg, were included in this study. A total of 3 observation time points of 7 days, 30 days and 60 days postoperatively were set. The experiment was divided into two steps: 1) aneurysm animal modeling; 2) implantation of a dense mesh stent in the aneurysm-carrying artery and abdominal aorta for each animal. The stent implantation in the aneurysm-carrying artery was to be used to examine the safety and effectiveness of the stent in treating aneurysms, and the stent implantation in the abdominal aorta, covering a pair of lumbar arteries, was to be used to examine the safety of the tested stent.
The test group was implanted with a dense mesh stent system in the aneurysm location (common carotid artery) and in the abdominal aorta of the animal model, and the control group was implanted with a dense mesh stent system in the aneurysm-carrying artery, where the abdominal aorta was implanted with the device to evaluate the effect of the stent on the penetrating and branch vessels.
In addition to heparin sodium injection 150 U/kg by IV during implantation, antiplatelet therapy (aspirin and clopidogrel) was given to the animals at 5 mg/kg each by feeding once a day for 3 days before surgery and at 5 mg/kg each by feeding postoperative to endpoint.
The collected tissues of the stented segments of the carrier arteries were preserved in 10% neutral formalin for more than 48 hours of immersion fixation, dehydrated in alcohol gradient and treated with xylene transparency for histopathological analysis.
The resin-embedded stented segment of the aneurysm-carrying artery was sectioned transversely through the neck of the aneurysm, with one slice cut at the aneurysm and two slices cut at the non-aneurysm, and stained with HE; the non-stented segment was paraffin-embedded, with one slice cut at the proximal and one at the distal end; HE staining was performed for histopathological evaluation.
One animal each at 7D (7 days), 30D (30 days) and 60D (60 days) was randomly selected, and the aneurysm-carrying artery and abdominal aorta implanted at the above time points were collected for SEM to observe the endothelialization of the flow-directed stent at the aneurysm neck site and the opening site of the branch vessels at the abdominal aorta site.

[3] = tested on: New Zealand White rabbits; assay: Coated flow-diverter stents (CFD) in the rabbit aneurysm model, no aspirin nor clopidogrel after implantation; format: in vivo; settings: 7 days, n=3, no aspirin nor clopidogrel after the implantation; preliminary
Excerpt: The same materials and protocol as in Example 3 were used, except that: • Only 3 animals were used for each condition, and. • No aspirin nor clopidogrel was given to animals after the implantation.

endothelial cells = settings: immobilized peptide, cited from earlier work
[4] = immobilized peptide, in vivo; cited from earlier work
CD31 = settings: soluble peptide; cited from earlier work
[5] = day 7, aneurysm-carrying artery, HE staining, FIG. 29
[6] = day 60, aneurysm-carrying artery, FIG. 30

YKSTVIVNNKEKTTAE-PEG4-K(N3)-CONH2 (YKSTVIVNNKEKTTAE[PEG4′][Lys(N3)]-NH2) [SP1072]
CD31/Actin score [1]: significantly higher | CD31 expression, Integrated Density [1]: evident positive effect in terms of CD31 expression | ratio between CD31 and F-actin expression [1]: higher CD31/actin ratio | endothelialization of the device at sites other than the aneurysm entry (conclusion) ([2]; Example 3 conclusion): fast and complete without apparent inflammation nor neointima | endothelialization on the inner surface of the flow-diverter stents (conclusion) ([2]; Example 3 conclusion): promotes early endothelialization on the inner surface of the flow-diverter stents | neo arterial wall at the entry of the aneurysm sac and thrombus inside the sac (conclusion) ([2]; Example 3 conclusion): promotes the growth of an organized, blood-impermeable neo arterial wall at the entry of the aneurysm sac | entry of fresh blood into the aneurysmal sac / thrombus (histopathology) [2, 5]: fresh blood is no longer allowed to enter and remain trapped there | organization of the thrombus in the aneurysmal sac (histopathology) [2, 5]: organized | inflammation/thrombosis of the arterial wall in contact with the stent struts (histopathology) [2, 6]: absence of inflammation/thrombosis of the arterial wall that is already in contact with the stent struts | organization of the thrombus in the aneurysmal sac (histopathology) [2, 6]: very well organized | survival and thrombus after implantation [3]: still alive with no thrombus

KWPALFVR [P8RI, prior art CD31-mimetic octa-peptide]
adhesion of endothelial cells (endothelial cells; in vitro): increases the adhesion of endothelial cells in vitro | blood element reaction (endothelial cells): reduces the blood element reaction | integration of endovascular devices [4]: enhances the integration of endovascular devices in vivo | action on CD31 (CD31): acts like a CD31 agonist

SHQMLFYKDDVLFYNISSS-GGSGGSGG-K(N3)-CONH2 (SHQMLFYKDDVLFYNISSSGGSGGSGG[Lys(N3)]-NH2; N-terminus assumed; SMILES CC[C@H](C)[C@H](NC(=O)[C@H](CC(N)=O)NC(=O)[C@H](Cc1ccc(O)cc1)NC(=O)[C@H](Cc1ccccc1)NC(=O)[C@H](CC(C)C)NC(=O)[C@@H](NC(=O)[C@H](CC(=O)O)NC(=O)[C@H](CC(=O)O)NC(=O)[C@H](CCCCN)NC(=O)[C@H](Cc1ccc(O)cc1)NC(=O)[C@H](Cc1ccccc1)NC(=O)[C@H](CC(C)C)NC(=O)[C@H](CCSC)NC(=O)[C@H](CCC(N)=O)NC(=O)[C@H](Cc1c[nH]cn1)NC(=O)[C@@H](N)CO)C(C)C)C(=O)N[C@@H](CO)C(=O)N[C@@H](CO)C(=O)N[C@@H](CO)C(=O)NCC(=O)NCC(=O)N[C@@H](CO)C(=O)NCC(=O)NCC(=O)N[C@@H](CO)C(=O)NCC(=O)NCC(=O)N[C@@H](CCCCN=[N+]=[N-])C(N)=O) [SP745]
CD31/Actin score [1]: significantly higher

[Ac-K(N3)-(Ttds)4-PRVTLDKKEAIQGGIVRVNSSVPEEK-Ttds-K^#(CH2CO)-CONH2]-[QHQMLFYhC^#DDVLFYNISSMK-CONH2] (chain 1 {Ac-Lys(N3)-Ttds-Ttds-Ttds-Ttds}-PRVTLDKKEAIQGGIVRVNSSVPEEK-{Ttds-K(CH2CO)-NH2}; chain 2 QHQMLFY[hCys]DDVLFYNISSMK-NH2; also: thioether at chain B 8 to a chain's C-terminus) [SP1383]
CD31/Actin score [1]: significantly higher

Ac-K(N3)-(Ttds)4-PRhCTLDKKEAIQGGIVRVNhCSVPEEK-CONH2 ({Ac-Lys(N3)-Ttds-Ttds-Ttds-Ttds}-PR[hCys]TLDKKEAIQGGIVRVN[hCys]SVPEEK-NH2; disulfide 3-20) [SP1380]
CD31 expression, Integrated Density [1]: evident positive effect in terms of CD31 expression | ratio between CD31 and F-actin expression [1]: higher CD31/actin ratio

— patent publication US20250281679A1, “BIOMIMETIC COATING FOR ENDOVASCULAR STENT” (INSERM (Institut National de la Santé et de la Recherche …, priority 2021, published 2025)
